Results from US20240182428A1, “PRODRUG OF CELECOXIB, PREPARATION METHOD THEREFOR AND APPLICATION THEREOF” (SHANGHAI INNOFORTUNE BOITECH CO. LTD., priority 2021, published 2024).
In brackets after ≈: the same amount, converted by molar mass. Like-named read-outs stand apart in the source and are kept apart here. One block for each compound: values may come before it.

Key:
[1] = Ocular pharmacokinetic test: celecoxib content in eye tissues after ocular administration; assay type: in vivo, New Zealand rabbit; details: after ocular administration of eye drops
From the text: To compare the content of the active compound celecoxib in each eye tissue to screen out lead compound with excellent pharmacokinetic characteristics after the ocular administration of SZY1907-P3, SZY1907-P4 and celecoxib in New Zealand rabbits.
Grouping: 9 male New Zealand rabbits were randomly divided into 3 groups of 3 animals each.
Dosage: According to the formulation of Guangzhou Zhongshan Ophthalmic Center, the concentration of SZY1907-P3/P4 in eye drops is 0.1%. Thus, the dose of SZY1907-P3/P4 was set to 0.100 mg/New Zealand rabbit and the dose of celecoxib was 0.075 mg/New Zealand rabbit (close to the equimolar dose of SZY1907-P3/P4).
The administration method was consistent with the clinical method, which was, ophthalmic administration, and the rabbit left and right eyes were simultaneously administrated.
0.1% of SZY1907-P3 eye drops: 0.01000 g of SZY1907-P3 was weighed, 0.00500 g of Tween-80 and 0.04500 g of polyoxyethylene 40 hydrogenated castor oil were added, and stirred with a glass rod until the solution was in an emulsion shape. 5 mL of distilled water was added slowly while stirring, dissolved for later use. 0.09000 g of sodium chloride and 0.00125 g of 80% benzalkonium chloride were weighed, 2 mL of distilled water was added, and stirred to dissolve. The two solutions was combined and adjusted the volume to 10 mL. […]

[2] = Solubility of SZY1907-P3 prototype and salt forms at different pH values
[3] = Stability (purity) of the prototype at different pH values; assay type: physicochemical
[4] = Table 1; cited from earlier work
[5] = physchem
[6] = pH 7

Compound: CNCCC(=O)NS(=O)(=O)c1ccc(-n2nc(C(F)(F)F)cc2-c2ccc(C)cc2)cc1 [SZY1907-P4]
- Drug concentration / distribution in ocular tissues (cornea, conjunctiva and aqueous humor), in words [1]: almost not detected

Compound: phosphate
- Solubility ([2]; pH value 1): 42.9 mg/mL
- Solubility ([2]; pH value 2): 25.72 mg/mL
- Solubility ([2]; pH value 4): 1.28 mg/mL
- Solubility ([2]; pH value 6): 0.47 mg/mL
- Solubility ([2]; pH value 7): 0.09 mg/mL
- Solubility ([2]; pH value 8): 0.1 mg/mL

Compound: Cc1ccc(-c2cc(C(F)(F)F)nn2-c2ccc(S(=O)(=O)NC(=O)CCN)cc2)cc1 [SZY1907-P3]
- Solubility, in words [2]: proper solubility
- pH dependence of solubility, in words [2]: a certain pH dependence
- Stability under storage conditions, in words [3]: relatively stable under storage conditions

Compound: Cc1ccc(-c2cc(C(F)(F)F)nn2-c2ccc(S(=O)(=O)NC(=O)CCN)cc2)cc1 [prototype]
- Solubility ([2]; Table 2, pH value 6.5-7.0): 0.09 mg/mL
- Solubility ([2]; Table 2, pH value 7.0-7.5): 0.1 mg/mL
- Solubility ([5]; aqueous buffer): 0.1 mg/mL (≈ 221 µM)
- Solubility ([5]; pH 1, simulated gastric fluid): 83.5 mg/mL (≈ 184000 µM)
- Solubility ([5]; pH 2, simulated gastric fluid): 1.02 mg/mL (≈ 2250 µM)
- Solubility ([5]; pH 4, aqueous buffer): 0.08 mg/mL (≈ 177 µM)
- Solubility ([5]; pH 6, aqueous buffer): 0.08 mg/mL (≈ 177 µM)
- Solubility ([5]; pH 7, aqueous buffer): 0.09 mg/mL (≈ 199 µM)
- Solubility ([5]; pH 8, aqueous buffer): 0.08 mg/mL (≈ 177 µM)
- Purity at Day 0 ([3]; pH value 5.5-6.0): 99.85%
- Purity at Day 1 ([3]; pH value 5.5-6.0): 99.32%
- Purity at Day 2 ([3]; pH value 5.5-6.0): 99.67%
- Purity at Day 5 ([3]; pH value 5.5-6.0): 99.63%
- Purity at Day 0 ([3]; pH value 6.5-7.0): 99.88%
- Purity at Day 1 ([3]; pH value 6.5-7.0): 100.00%
- Purity at Day 2 ([3]; pH value 6.5-7.0): 99.74%
- Purity at Day 5 ([3]; pH value 6.5-7.0): 99.87%
- Purity at Day 0 ([3]; pH value 7.0-7.5): 99.81%
- Purity at Day 1 ([3]; pH value 7.0-7.5): 100.00%
- Purity at Day 2 ([3]; pH value 7.0-7.5): 99.70%
- Purity at Day 5 ([3]; pH value 7.0-7.5): 99.84%

Compound: fumarate
- Solubility [6]: 0.09 mg/mL
- Pka [4]: 3.03

Continued, in another order:

- Drug concentration / distribution in ocular tissues (cornea, conjunctiva and aqueous humor), in words [1]: relatively low
Compound: Cc1ccc(-c2cc(C(F)(F)F)nn2-c2ccc(S(N)(=O)=O)cc2)cc1 [Celecoxib]

- Solubility ([2]; pH value 1): 40.47 mg/mL
- Solubility ([2]; pH value 2): 0.08 mg/mL
- Solubility ([2]; pH value 4): 0.1 mg/mL
- Solubility ([2]; pH value 6): 0.09 mg/mL
- Solubility ([2]; pH value 7): 0.09 mg/mL
- Solubility ([2]; pH value 8): 0.1 mg/mL
Compound: NCCCCC(N)C(=O)O (centres unmarked) [lysinate]
- Pka [4]: 2.16
